Consider nine compounds from patent US8361728B2, “Method for diagnosis of glutamate dehydrogenase disorders” (priority 2008, dated 2013).

SMILES strings stand for the structures. Where “and” joins values, the source holds several entries; their conditions need not be identical. Identical values can stand only once. Like-named read-outs stand apart in the source and are kept apart here.

For one assay, the target named is T1, wild-type hGDH1 (Homo sapiens, UniProt P00367).
T1 construct: made in house; host or cells: Sf21 insect cells, baculovirus
Nature of the assay: Inhibition of purified recombinant GDH by female steroidal hormones. The format is biochemical. The procedure:
(§1) For this, a study was performed on the interaction of estrogens with the hGDH2 variant as well as with the wild type-hGDH2 and hGDH1 obtained by expression of the corresponding cDNAs in Sf21 cells.
(§2) Production and Purification of Recombinant hGDHs. […] The produced recombinant hGDHs were purified from Sf21 cell extracts using a previously described method that involves Ammonium Sulfate fractionation, hydrophobic interaction and hydroxyapatite chromatography. […] All hGDH proteins studied were produced and analyzed in parallel.
(§3) Enzyme Assays. GDH activity was assayed spectrophotometrically at 25° C. in the direction of reductive amination of α-ketoglutarate. Initial rates (enzyme velocity at the interval during which the change in absorbance maintained linearity) were recorded. […] Regulation of the human recombinant GDHs by allosteric stimulators was studied by adding to the reaction ADP or L-leucine in various concentrations. Inhibition by GTP was studied by adding this compound in various concentrations to the reaction either in the absence of allosteric modulators or in the presence of 0.1 mM or 1.0 mM ADP. For the heat inactivation studies, samples containing about 50 μg/ml purified enzyme were incubated at 47.5° C. Aliquots were removed at specified time intervals and assayed immediately for enzyme activity.
(§4) Purification of Recombinant Wild-Type and Mutant hGDHs—Using extracts of Sf21 cells expressing wild-type hGDH1 or hGDH2, or the Arg443Ser hGDH1 mutant were purified to homogeneity using a previously described procedure (Kanavouras et al., 2007). Also, as described below, the Arg443Ser/Gly456Ala double mutant and the Ser409Arg/Asp single mutants of hGDH1 and the Ser445Ala mutant of hGDH2 were studied after they were purified to homogeneity using extracts of Sf21 cells expressing these proteins.

The target of assay [1] is T2, Ser443-hGDH1 (Arg443Ser hGDH1 mutant) (Homo sapiens, UniProt P00367, R496S).
T2 construct: made in house; host or cells: Sf21 insect cells
The description is as above. The format is biochemical.
From the text: (§5) Production and Purification of Recombinant hGDHs.
as §4, with “proteins. Enzyme recoveries and degree of purification of the final products were similar to those of the wild-type hGDH1 and hGDH2.” for “proteins.”
This was further tested by studying a double mutant of hGDH1 that, in addition to the Arg443Ser change, carries the Gly456Ala polymorphism that confers resistance to GTP. […] That substitution of Ser for Arg443 is responsible for the sensitivity of the wild-type hGDH2 to estrogens was confirmed by reverse mutagenesis experiments in which the Ser443 of hGDH2 was replaced by Arg.

In assay [2] the target is T3, hGDH2 (Homo sapiens, UniProt P49448).
T3 construct: made in house; host or cells: Sf21 insect cells, baculovirus
As to the kind of experiment: Allosteric stimulation of recombinant GDH by ADP or L-leucine. It counts as biochemical. To be noted: positive modulation. The procedure: as §2, §3

For assay [3], the target named is T4, Ala445-hGDH2 (Homo sapiens, UniProt P49448, S498A). Described as above. It counts as biochemical. Further details: made in house; host or cells: Sf21 insect cells, baculovirus. The following applies: positive modulation. The procedure:
as §2, §3

For assay [4], the target named is T5, hGDH1 (Homo sapiens, UniProt P00367). Described as above. It counts as biochemical. Further details: made in house; host or cells: Sf21 insect cells, baculovirus. The following applies: positive modulation. The method, then:
as §2, §3

A further assay concerns the target T6, wild-type hGDH2 (Homo sapiens, UniProt P49448).
T6 construct: made in house; host or cells: Sf21 insect cells, baculovirus
Nature of the assay: Inhibition of purified recombinant GDH by female steroidal hormones. The format is biochemical. The following applies: for relative inhibition of hGDH2 versus hGDH1: in words. The method, then: as §1, §2, §3, §4

A further assay addresses T7, Ser445Ala hGDH2 variant (Homo sapiens, UniProt P49448, S498A).
T7 construct: made in house; host or cells: Sf21 insect cells, baculovirus
As to the kind of experiment: Inhibition of purified recombinant GDH by estrogens. The format is biochemical. To be noted: baseline conditions (absence of allosteric effectors). The procedure:
as §1, §5

In assay [5] the target is T3, hGDH2. Nature of the assay: GTP inhibition of purified recombinant GDH activity. It counts as biochemical. The method, then: (§6) To investigate whether the Ser445Ala change modified the protein function of hGDH2, an Ala445-hGDH2 variant was obtained in recombinant form by expressing in Sf21 cells using the baculovirus expression system a GLUD2 cDNA with G instead of 1492T. […] The specific basal activity of the variant was concentration-dependent (FIGS. 6&7), as also previously shown for hGDH2 but not for hGDH1. At enzyme concentrations of about 5 μg/ml, the basal specific activity of the variant approached that of hGDH1 (FIGS. 6 & 7), but in contrast to the latter this activity was resistant to suppression by GTP (Table 3).
as §5

Assay [6] addresses T3, hGDH2. To be noted: Zaganas and Plaitakis, 2002; read-out: IC50 (GTP inhibition); cited from earlier work.
For assay [7], the target named is T4, Ala445-hGDH2. Nature of the assay: GTP inhibition of purified recombinant GDH activity. The format is biochemical. Further details: made in house; host or cells: Sf21 insect cells, baculovirus. The method, then:
as §6, §5

The target in assay [8] is T5, hGDH1. The assay is described as above. The format is biochemical. More on the design: made in house; host or cells: Sf21 insect cells, baculovirus. The method, then: as §6, §5
In assay [9] the target is T5, hGDH1. Further details: made in house; host or cells: Sf21 insect cells, baculovirus. To be noted: Zaganas and Plaitakis, 2002; read-out: IC50 (GTP inhibition); cited from earlier work.
Assay [10] concerns the target T4, Ala445-hGDH2. The method, then:
as §2
as §3, with “GDH activity was assayed spectrophotometrically at 25° C. in the direction of reductive amination of α-ketoglutarate.” left out

Another assay deals with Ser445-hGDH2 (Homo sapiens, UniProt P49448). The method, then:
as §2
as §3, with “GDH activity was assayed spectrophotometrically at 25° C. in the direction of reductive amination of α-ketoglutarate.” left out

The target of assay [11] is T5, hGDH1. The procedure:
as §2
as §3, with “GDH activity was assayed spectrophotometrically at 25° C. in the direction of reductive amination of α-ketoglutarate.” left out

[12] abbreviates: No ADP (baseline conditions), read-out: IC50.

T2 sequence (P00367 54-558 R496S): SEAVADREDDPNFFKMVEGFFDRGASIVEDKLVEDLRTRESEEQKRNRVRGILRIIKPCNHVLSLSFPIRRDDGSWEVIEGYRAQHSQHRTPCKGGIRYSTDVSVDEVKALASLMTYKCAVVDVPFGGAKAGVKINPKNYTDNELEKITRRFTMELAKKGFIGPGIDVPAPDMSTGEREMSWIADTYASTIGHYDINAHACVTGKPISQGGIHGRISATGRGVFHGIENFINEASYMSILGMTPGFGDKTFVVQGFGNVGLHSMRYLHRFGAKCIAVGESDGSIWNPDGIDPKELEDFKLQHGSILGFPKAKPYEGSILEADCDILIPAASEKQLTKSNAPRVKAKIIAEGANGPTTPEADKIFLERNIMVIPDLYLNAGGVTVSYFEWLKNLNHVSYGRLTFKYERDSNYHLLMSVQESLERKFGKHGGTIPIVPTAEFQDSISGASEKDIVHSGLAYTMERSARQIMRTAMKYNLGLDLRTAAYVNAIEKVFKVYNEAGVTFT
T3 sequence (P49448 54-558): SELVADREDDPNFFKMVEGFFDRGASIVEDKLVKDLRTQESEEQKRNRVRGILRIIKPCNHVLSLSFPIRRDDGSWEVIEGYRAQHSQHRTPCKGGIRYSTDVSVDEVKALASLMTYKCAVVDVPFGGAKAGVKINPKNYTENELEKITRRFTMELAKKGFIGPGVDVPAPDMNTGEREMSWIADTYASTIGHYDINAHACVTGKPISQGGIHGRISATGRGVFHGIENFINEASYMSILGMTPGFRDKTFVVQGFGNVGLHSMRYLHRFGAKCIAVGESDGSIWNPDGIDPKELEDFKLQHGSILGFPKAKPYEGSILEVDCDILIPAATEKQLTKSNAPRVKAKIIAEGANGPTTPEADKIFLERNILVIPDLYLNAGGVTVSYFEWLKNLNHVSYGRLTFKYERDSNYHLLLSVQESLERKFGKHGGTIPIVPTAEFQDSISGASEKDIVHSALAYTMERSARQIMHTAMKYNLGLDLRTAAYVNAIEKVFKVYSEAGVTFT
T6 sequence (P49448 54-558): as above
T5 sequence (P00367 54-558): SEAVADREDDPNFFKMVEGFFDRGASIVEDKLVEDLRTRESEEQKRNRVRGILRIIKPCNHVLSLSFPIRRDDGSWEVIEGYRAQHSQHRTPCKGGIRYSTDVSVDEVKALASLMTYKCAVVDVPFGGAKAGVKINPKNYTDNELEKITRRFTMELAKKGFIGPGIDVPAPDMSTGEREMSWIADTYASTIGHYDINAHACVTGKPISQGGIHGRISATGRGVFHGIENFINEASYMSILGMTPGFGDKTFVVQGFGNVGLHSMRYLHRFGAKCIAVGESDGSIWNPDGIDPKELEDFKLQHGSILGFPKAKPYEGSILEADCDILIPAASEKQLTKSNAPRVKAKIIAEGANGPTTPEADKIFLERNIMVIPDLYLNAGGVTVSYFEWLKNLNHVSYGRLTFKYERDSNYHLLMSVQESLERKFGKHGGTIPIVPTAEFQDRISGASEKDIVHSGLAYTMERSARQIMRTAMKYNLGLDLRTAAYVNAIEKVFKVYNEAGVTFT
T1 sequence (P00367 54-558): as above
T4 sequence (P49448 54-558 S498A): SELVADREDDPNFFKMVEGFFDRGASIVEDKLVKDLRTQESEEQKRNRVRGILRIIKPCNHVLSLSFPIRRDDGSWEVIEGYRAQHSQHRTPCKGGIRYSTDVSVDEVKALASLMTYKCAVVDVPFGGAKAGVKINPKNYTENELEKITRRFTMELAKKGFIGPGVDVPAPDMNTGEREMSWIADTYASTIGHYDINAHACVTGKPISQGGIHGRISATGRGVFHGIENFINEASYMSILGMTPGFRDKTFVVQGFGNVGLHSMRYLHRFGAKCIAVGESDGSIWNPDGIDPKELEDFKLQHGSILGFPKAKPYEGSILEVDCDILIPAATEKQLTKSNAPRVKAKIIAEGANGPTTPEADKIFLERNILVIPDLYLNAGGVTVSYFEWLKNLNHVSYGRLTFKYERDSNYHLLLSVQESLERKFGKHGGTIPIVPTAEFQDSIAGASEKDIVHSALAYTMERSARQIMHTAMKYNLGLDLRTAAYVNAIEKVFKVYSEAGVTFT
Chain of Ser445-hGDH2 (P49448 54-558): as the sequence (P49448 54-558) above
T7 sequence (P49448 54-558 S498A): as the sequence (P49448 54-558 S498A) above

In the case of `C[C@]12CC[C@@H]3c4ccc(O)cc4CC[C@H]3[C@@H]1CC[C@@H]2O` [17 b-Estradiol, 17 beta-estradiol], the IC50 at wild-type hGDH1 (IC50, 0.1 mM ADP) came out at 69.2 ± 1.3 µM; on wild-type hGDH1 (IC50, No ADP (baseline conditions)), 26.9 µM; in [1], 2.22 ± 0.76 µM.

`Nc1ncnc2c1ncn2[C@@H]1O[C@H](COP(=O)(O)OP(=O)(O)O)[C@@H](O)[C@H]1O` [ADP]: the values for the EC50 on hGDH2 [2] (read-out: ADP SC50), on Ala445-hGDH2 [3] (read-out: ADP SC50) and at hGDH1 [4] (read-out: ADP SC50) were 68.5 ± 2.3 µM, 58.2 ± 5.5 µM and 22.4 ± 2.1 µM, respectively.

Regarding `CC/C(=C(/CC)c1ccc(O)cc1)c1ccc(O)cc1` [DES, diethylstilbestrol], the half-maximal inhibitory concentration (IC50) on wild-type hGDH1 (0.1 mM ADP, read-out: IC50) was 7.07 ± 0.4 µM; on wild-type hGDH1 (setting [12]), 1.67 ± 0.02 µM; on wild-type hGDH1 (baseline conditions (absence of allosteric effectors), read-out: IC50±S.E.), 1.53 µM; at wild-type hGDH2 (0.1 mM ADP) it was 1.05 ± 0.09 µM; on wild-type hGDH2 (No ADP (baseline conditions)), 0.094 µM and 0.09 µM; in [1] (0.1 mM ADP, read-out: IC50) it was 0.51 ± 0.05 µM. The IC50 on Ser445Ala hGDH2 variant stood at 0.019 ± 0.003 µM. Besides, the “fold higher sensitivity/affinity of hGDH2 than hGDH1” value at wild-type hGDH2 (baseline conditions, hGDH2 versus hGDH1) was > 15 fold and ~18 fold. For the same compound, the “effect of inhibitor on Km for α-ketoglutarate, NH3 or glutamate” value on wild-type hGDH2 (inhibitory concentrations of DES, wild-type hGDH1 and hGDH2) is “not altered”.

As to `Nc1nc2c(ncn2[C@@H]2O[C@H](COP(=O)(O)OP(=O)(O)OP(=O)(O)O)[C@@H](O)[C@H]2O)c(=O)[nH]1` [GTP], the “Hill Coefficient” value on hGDH2 [5] (0.1 mM ADP) is 1.06 ± 0.16; at hGDH2 [5] (1 mM ADP), 0.82 ± 0.11; on hGDH2 [5] (No ADP) it was 0.72 ± 0.05; on Ala445-hGDH2 [7] (0.1 mM ADP) it was 1.01 ± 0.09; at Ala445-hGDH2 [7] (1 mM ADP), 0.71 ± 0.04; on Ala445-hGDH2 [7] (No ADP), 0.80 ± 0.05. Besides, the “Hill Coefficient” value on hGDH1 [8] (0.1 mM ADP) is 2.13 ± 0.15; on hGDH1 [8] (1 mM ADP) it was 1.94 ± 0.07; on hGDH1 [8] (No ADP) it was 1.51 ± 0.07. Moreover, the half-inhibitory concentration (IC50) at hGDH2 [5] (0.1 mM ADP) is 12.2 ± 2.65 µM; at hGDH2 [5] (1 mM ADP), 204 ± 36.4 µM; at hGDH2 [5] (No ADP) it was 40.1 ± 4.46 µM; on hGDH2 [6], greater than 200 µM; at Ala445-hGDH2 [7] (0.1 mM ADP), 24.4 ± 2.62 µM; on Ala445-hGDH2 [7] (1 mM ADP) it was 258 ± 42.2 µM. The IC50 on Ala445-hGDH2 [7] (No ADP) is 29.1 ± 4.48 µM; at hGDH1 [8] (0.1 mM ADP), 1.61 ± 0.02 µM; on hGDH1 [8] (1 mM ADP), 18.5 ± 0.49 µM; on hGDH1 [8] (No ADP), 0.31 ± 0.03 µM; at hGDH1 [9], 0.1 to 0.3 µM.

For `N[C@@H](CCC(=O)O)C(=O)O` [Glutamate], the Michaelis-Menten constant (Km) on Ala445-hGDH2 [10] (read-out: Km Glutamate) came to 6.8 ± 1.9 mM; at Ser445-hGDH2 (read-out: Km Glutamate) it was 10.7 ± 1.77 mM; at hGDH1 [11] (read-out: Km Glutamate), 12.4 ± 1.48 mM.

Take `CC(C)C[C@H](N)C(=O)O` [L-leucine]: the values for the EC50 at hGDH2 [2] (read-out: L-leucine SC50), at Ala445-hGDH2 [3] (read-out: L-leucine SC50) and at hGDH1 [4] (read-out: L-leucine SC50) were 1010 ± 213 µM, 955 ± 45 µM and 860 ± 139 µM, respectively.

As to `C[C@]12CC[C@@H]3c4ccc(O)cc4CC[C@H]3[C@@H]1C[C@@H](O)[C@@H]2O` [Oestriol], the half-maximal inhibitory concentration (IC50) on wild-type hGDH1 (0.1 mM ADP, read-out: IC50) was 316 ± 26.1 µM; at wild-type hGDH1 (setting [12]), 145 ± 18.8 µM; at wild-type hGDH2 (0.1 mM ADP) it was 189 ± 17.9 µM; at wild-type hGDH2 (No ADP (baseline conditions)), 11.3 ± 0.74 µM; in [1] (0.1 mM ADP, read-out: IC50) it was 2.43 ± 0.05 µM. Further, the “relative inhibition of hGDH2 versus hGDH1” value was “inhibited hGDH2 more strongly than hGDH” on wild-type hGDH2 and “inhibited hGDH2 more strongly than hGDH1” at wild-type hGDH2 (listed as oestriol).

As for `CC(=O)[C@H]1CC[C@H]2[C@@H]3CCC4=CC(=O)CC[C@]4(C)[C@H]3CC[C@]12C` [Progesterone], the 50% inhibitory concentration (IC50) on wild-type hGDH1 (0.1 mM ADP, read-out: IC50) was determined as 596 ± 50.1 µM; at wild-type hGDH1 (setting [12]), 219 ± 7.99 µM; on wild-type hGDH2 (0.1 mM ADP), 392 ± 8.91 µM; on wild-type hGDH2 (No ADP (baseline conditions)) it was 12.3 ± 2.63 µM; in assay [1] (0.1 mM ADP, read-out: IC50), 8.62 ± 1.23 µM. The figures for the “relative inhibition of hGDH2 versus hGDH1” value on wild-type hGDH2 and at wild-type hGDH2 (listed as progesterone) were “inhibited hGDH2 more strongly than hGDH” and “inhibited hGDH2 more strongly than hGDH1”, respectively.

As for `O=C(O)CCC(=O)C(=O)O` [α-Ketoglutarate], the Km turned out to be 2.67 ± 0.31 mM on Ala445-hGDH2 [10] (read-out: Km α-Ketoglutarate), 2.07 ± 0.29 mM at Ser445-hGDH2 (read-out: Km α-Ketoglutarate) and 2.01 ± 0.18 mM at hGDH1 [11] (read-out: Km α-Ketoglutarate).

One may read the IC50 as the concentration that inhibits the measured activity by half. One may read the Km as the concentration of substrate that gives half-maximal velocity.
